# Data as given in US10544106B2, “Certain chemical entities, compositions, and methods” (NeuPharma, Inc., priority 2016, dated 2020).
# Key:
# BTK = BTK (Homo sapiens (Human), UniProt Q06187); assay: Z'-LYTE kinase inhibition assay against BTK; assay type: biochemical; conditions: for inhibition at 0.1 µM: compound at 100 nM, ATP concentration at Km; for IC50: series of concentrations, GraphPad Prism 5
# Summary of the method: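 Z′-LYTE FRET readout: 1.04-10.4 ng BTK with 2 μM Tyr 01 peptide, ATP at Km, in 50 mM HEPES pH 7.5, 10 mM MgCl2, 1 mM EGTA, 0.01% BRIJ-35, 1% DMSO. 60 min kinase reaction at room temperature, then 60 min development; IC50 from 10-point, 3-fold titrations.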
# OCI-Ly10 cells = assay: OCI-Ly10 cell proliferation assay (Alamar Blue, 72 hours); assay type: cell-based; conditions: Homo sapiens
# Protocol: OCI-Ly10 cells were cultured in Iscove's DMEM supplemented with 20% fetal bovine serum and 1× penicillin/streptomycin/glutamine. The cells were maintained in T175 flasks under 5% CO2 in a 37 ° C. humidified incubator for 5 days prior to plating and assay.
# Cells were pooled by centrifugation (200 ref, 8 minutes) and resuspended in fresh medium to a concentration of 2.00E+05 cells/ml. 200 µl of the cell suspension was added to each well (40,000 cells/well) of a black-walled 96 well plate to which 1 μl of compound (n=3 per concentration) in 100% DMSO (0.5% final concentration) was added per well. Vehicle and cell free wells were also included in the assay. The dosed cells were cultured under normal conditions for 72 hours.
# Cell proliferation is measured using the dye Alamar Blue (resazurin). Resazurin is reduced to resorufin by cellular enzymes and is fluorescent (544 nm excitation, 612 nm emission). Fluorescence intensity is proportional to cell number. Resazurin was prepared in PBS to a stock concentration of 440 μM. 40 μl of the 440 μM resazurin stock solution was added 3 hours prior to the 72 hour termination of the assay. The plate was returned to normal culture conditions and fluorescence measurements were collected using a Cytation3 multimode plate reader (Biotek) at 72 hours.
# The scale utilized in Table 8 is as follows: ++ less than 50 nM and + greater than 50 nM.
# BTK, sequence (Q06187 whole entry): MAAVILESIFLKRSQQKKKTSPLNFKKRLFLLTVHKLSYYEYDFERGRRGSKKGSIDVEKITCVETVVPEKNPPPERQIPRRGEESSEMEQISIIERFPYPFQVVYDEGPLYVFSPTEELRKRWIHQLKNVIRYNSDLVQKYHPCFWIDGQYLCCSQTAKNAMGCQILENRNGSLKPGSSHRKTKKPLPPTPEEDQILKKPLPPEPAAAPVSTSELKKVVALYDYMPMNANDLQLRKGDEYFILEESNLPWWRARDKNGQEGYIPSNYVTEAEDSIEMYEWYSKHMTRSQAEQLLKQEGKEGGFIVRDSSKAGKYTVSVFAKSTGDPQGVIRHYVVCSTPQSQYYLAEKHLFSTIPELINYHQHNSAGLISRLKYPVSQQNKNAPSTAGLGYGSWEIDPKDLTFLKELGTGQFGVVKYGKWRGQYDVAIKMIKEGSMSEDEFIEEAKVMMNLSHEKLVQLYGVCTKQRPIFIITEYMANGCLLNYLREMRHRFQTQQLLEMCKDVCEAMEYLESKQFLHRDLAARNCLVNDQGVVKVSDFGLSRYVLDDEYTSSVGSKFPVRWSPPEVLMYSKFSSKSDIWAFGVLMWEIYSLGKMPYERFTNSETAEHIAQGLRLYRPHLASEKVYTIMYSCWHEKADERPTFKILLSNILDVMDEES
Structure (SMILES),inhibition at 0.1 µM (BTK) [%],IC50 (BTK) [nM],IC50 (OCI-Ly10 cells) [nM]
"C=CC(=O)Nc1cccc(-c2cc(-c3ccc(C(=O)N4CCCC4)cc3)cc3cncnc23)c1 [C102, N-(3-(6-(4-(pyrrolidine-1-carbonyl)phenyl)quinazolin-8-yl)phenyl)acrylamide]",> 50,< 100,> 50
"C=CC(=O)Nc1cccc(-c2cc(-c3ccc(Oc4cc(C5CC5)ccn4)cc3)cc3cncnc23)c1 [C183, N-(3-(6-(4-((4-cyclopropylpyridin-2-yl)oxy)phenyl)quinazolin-8-yl)phenyl)acrylamide]",> 50,< 100,< 50
"C=CC(=O)Nc1cccc(-c2cc(-c3ccc(Oc4ncccc4F)cc3F)cc3cncnc23)c1 [C105, N-(3-(6-(2-fluoro-4-((3-fluoropyridin-2-yl)oxy)phenyl)quinazolin-8-yl)phenyl)acrylamide]",> 50,< 100,< 50
"C=CC(=O)Nc1cccc(-c2cc(-c3ccc(Oc4ccccn4)c(F)c3)cc3cncnc23)c1 [C135, N-(3-(6-(3-fluoro-4-(pyridin-2-yloxy)phenyl)quinazolin-8-yl)phenyl)acrylamide]",> 50,< 100,< 50
"C=CC(=O)Nc1cccc(-c2cc(-c3cccnc3)cc3cnc(N)nc23)c1 [C035, N-(3-(2-amino-6-(pyridin-3-yl)quinazolin-8-yl)phenyl)acrylamide]",> 50,< 100,> 50
"C=CC(=O)Nc1cccc(-c2cc(-c3ccc(Oc4ccccn4)cc3)cc3cncnc23)c1 [C099, N-(3-(6-(4-(pyridin-2-yloxy)phenyl)quinazolin-8-yl)phenyl)acrylamide]",> 50,< 100,< 50
"C=CC(=O)Nc1cccc(-c2cc(-c3ccc(Oc4ccccn4)cc3OC)cc3cncnc23)c1 [C121, N-(3-(6-(2-methoxy-4-(pyridin-2-yloxy)phenyl)quinazolin-8-yl)phenyl)acrylamide]",> 50,< 100,> 50
"C=CC(=O)Nc1cccc(-c2cc(-c3ccc(Oc4ccccn4)cc3F)cc3cncnc23)c1 [C112, N-(3-(6-(2-fluoro-4-(pyridin-2-yloxy)phenyl)quinazolin-8-yl)phenyl)acrylamide]",> 50,< 100,< 50
"C=CC(=O)Nc1cccc(-c2cc(-c3ccc(C(=O)Nc4cc(C5CC5)ccn4)cc3Cl)cc3cncnc23)c1 [C120, 4-(8-(3-acrylamidophenyl)quinazolin-6-yl)-3-chloro-N-(4-cyclopropylpyridin-2-yl)benzamide]",> 50,< 100,< 50
"C=CC(=O)N1CCC(c2cc(-c3ccc(C(=O)Nc4cc(F)ccn4)cc3)n3cnccc23)C1 (stereo not drawn) [C065, 4-(5-(1-acryloylpyrrolidin-3-yl)pyrrolo[1,2-c]pyrimidin-7-yl)-N-(4-fluoropyridin-2-yl)benzamide]",> 50,< 100,< 50
"C=CC(=O)Nc1cccc(-c2cc(-c3ccc(C(=O)Nc4cc(C5CC5)ccn4)c(F)c3)cc3cncnc23)c1 [C139, 4-(8-(3-acrylamidophenyl)quinazolin-6-yl)-N-(4-cyclopropylpyridin-2-yl)-2-fluorobenzamide]",> 50,< 100,< 50

# Next, values leading:
inhibition at 0.1 µM (BTK) [%],IC50 (BTK) [nM],IC50 (OCI-Ly10 cells) [nM],Structure (SMILES)
,< 100,< 50,"C=CC(=O)N1CCC(c2nc(-c3ccc(C(=O)Nc4ccccn4)c(F)c3)n3c(N)nccc23)C1 (stereo not drawn) [C230, 4-(1-(1-acryloylpyrrolidin-3-yl)-5-amino-imidazo[1,5-c]pyrimidin-3-yl)-2-fluoro-N-(pyridin-2-yl)benzamide]"
> 50,< 100,< 50,"C=CC(=O)N1CCC(c2nc(-c3ccc(Oc4cc(OC)ccn4)cc3)n3c(N)nccc23)C1 (stereo not drawn) [C210, 1-(3-(5-amino-3-(4-((4-methoxypyridin-2-yl)oxy)phenyl)imidazo[1,5-c]pyrimidin-1-yl)pyrrolidin-1-yl)prop-2-en-1-one]"
> 50,< 100,< 50,"C=CC(=O)Nc1cccc(-c2cc(-c3ccc(Oc4cc(C#N)ccn4)cc3)cc3cncnc23)c1 [C184, N-(3-(6-(4-((4-cyanopyridin-2-yl)oxy)phenyl)quinazolin-8-yl)phenyl)acrylamide]"
,< 100,< 50,"C=CC(=O)N1CCCC(c2nc(-c3ccc(C(=O)Nc4ccccn4)cc3)n3c(N)nccc23)C1 (stereo not drawn) [C235, 4-(1-(1-acryloylpiperidin-3-yl)-5-amino-imidazo[1,5-c]pyrimidin-3-yl)-N-(pyridin-2-yl)benzamide]"
> 50,< 100,< 50,"C=CC(=O)N1CCC(c2nc(-c3ccc(C(=O)Nc4ccccn4)cc3)n3c(N)nccc23)C1 (stereo not drawn) [C185, 4-(1-(1-acryloylpyrrolidin-3-yl)-5-amino-imidazo[1,5-c]pyrimidin-3-yl)-N-(pyridin-2-yl)benzamide]"
> 50,< 100,< 50,"C=CC(=O)N1CCC(c2nc(-c3ccc(C(=O)Nc4ccccn4)cc3)n3c(N)ncnc23)C1 (stereo not drawn) [C197, 4-(8-(1-acryloylpyrrolidin-3-yl)-4-amino-imidazo[1,5-a][1,3,5]triazin-6-yl)-N-(pyridin-2-yl)benzamide]"
,< 100,< 50,"C=CC(=O)N1CCC(c2nc(-c3ccc(C(=O)Nc4cc(OC)ccn4)cc3)n3c(N)nccc23)C1 (stereo not drawn) [C240, 4-(1-(1-acryloylpyrrolidin-3-yl)-5-amino-imidazo[1,5-c]pyrimidin-3-yl)-N-(4-methoxypyridin-2-yl)benzamide]"
> 50,< 100,< 50,"C=CC(=O)N1CCC(c2nc(-c3ccc(C(=O)Nc4cc(C5CC5)ccn4)cc3)n3c(N)ncnc23)C1 (stereo not drawn) [C199, 4-(8-(1-acryloylpyrrolidin-3-yl)-4-amino-imidazo[1,5-a][1,3,5]triazin-6-yl)-N-(4-cyclopropylpyridin-2-yl)benzamide]"
